Patent US5330992A, “1-cyclopropyl-4-pyridyl-quinolinones” (priority 1992, dated 1994)
Read-outs that look alike come from different tables or passages of the source.

Columns and labels:
human topoisomerase II = target: T1, human topoisomerase II (Homo sapiens, UniProt P11388); test: Mammalian Topoisomerase II Inhibition Assay (DNA-topo II complex formation); type: biochemical; conditions: EC50 = concentration with activity equal to EC50 of reference mAMSA; read-out: TopoII Inh. EC50
T1 construct: Topo II was purified from late log phase suspension cultures of HeLa WIS; endogenous in cells; host or cells: HeLa WIS suspension cultures, late log phase (enzyme purified from the cells)
Description: Mammalian Topoisomerase II Inhibition Assay Procedure
The assay quantitates the amount of topo II covalently complexed by DNA at equilibrium during a topo II reaction. This assay determines the potential of a compound to stabilize this complex, which potential is closely related to the cytotoxicity of the compound.
Assays (in duplicate) were assembled at 4° C.
4 ng 3' end labeled (^32 P) pBR322 DNA (10^7 DMP/μg)
The assay mix including the test compound was incubated for 20 minutes at 37° C. The reaction was terminated at 37° C. by the addition of 3 μl 10% SDS followed by the addition of 266 μl 10 mM Tris-Cl pH 7.5, 20 μg/ml BSA, 20 μg/ml calf thymus DNA, 1% SDS.
A SDS/protein precipitate was formed by the addition of 28 μl 2.5M KCl followed by chilling on ice for a minimum of 10 minutes. The precipitate was collected and washed with a Brandell cell harvester on a GFB glass fiber filter membrane as follows. The contents of the assay tube were drawn up into the harvester. The tube was then rinsed 7X with 10 mM Tris-Cl pH 7.5, 1 mM EDTA and 100 mM KCl. […] After drying, CPM was determined by liquid scintillation counting with 5 ml Biofluor (NEN Research Products) or Readisafe (Beckman Instruments Inc.) cocktail.
This solution then was diluted 1/5 into water and serially thereafter in either 0.02N sodium hydroxide or 0.04N hydrogen chloride, respectively. The stock solution and serial dilution of the test compound was stored at -20° C. prior to testing.
Screening of test compound--As an initial screen, the test compound was tested at a final concentration of 2, 20 and 200 μg/ml. The compound was then retested at a range of concentrations (usually 2-3X steps) bridging their approximate EC50 's, as estimated by the prescreen.
Controls--A solvent control which indicates the base level of topo II-DNA complex formed in the absence of the test compound was included in each test. A control, in which topo II was omitted, was included for each test compound at the highest drug concentration tested.
Reference Agent--A dose response curve with mAMSA at 0.01, 0.08, 0.16, 0.32, 1.0 and 10 μg/ml was included in each test.
The maximal DNA-topo II complex formed is taken as that equal to that formed at the nearly saturating dose of mAMSA (10 μg/ml).

[1] = In vivo antitumor assay, Panc03(sc); set-up: species or system mouse; conditions: mouse, in vivo
Text: (§1) Mice: Inbred: C3H/He and NCR-nu; and Hybrids: B6D2Fl (C57BL/6 females X DBA/2 males, CD2Fl (Balb/c females X DBS/2 males) and B6x C3fl (C57BL/6 x C3H) were bred at Wayne State University from strained obtained from the Frederick Cancer Research Facility, Frederick, Md. or purchased from commercial suppliers.
(§2) Tumors: Murine Tumor: P388 and an adriamycin-resistant (ADR) subline P388/ADR leukemia and the following transplantable solid tumors of mice were used for in Vivo testing: B16 melanoma (B16), pancreatic ductal adenocarcinoma No. 03 (Panc 03), colon adenocarcinoma No. 38 (colo 38), mammary ductal adenocarcinoma No. 16/C (Mam16) and an adriamycin-resistantsubline Mam16C/ADR. Human tumor: A single human tumor, mammary carcinoma MX-1 (MX1) was used for in vivo testing. All tumors are in the Developmental Therapeutics Program frozen tumor respository, maintained by the Biological Testing Branch, Frederick Md. Each has a detailed description, code identification number, and list of references at the National Tumor Repository. Murine tumors were maintained in the mouse strain of origin and were transplanted in the appropriate F1 hydrid (or the strain of origin) for therapy trials. Human mammary carcinoma MX-1 MX1) was maintained as a subcutaneous implant in either athymic Swiss (Cr: NIH(S)-nu) or athymic random bred (NCR-nu) mice and transplanted in NCR-nu for therapy trials.
(§3) Chemotherapy: For pancreatic ductal adenocarcinoma No. 3, colon adenocarcinoma No. 38 (colo38), lung carcinoma No. 12 (LC12) and both adriamycin-sensitive (RP) and -resistant ADR) mammary ductal adenocarcinoma No. 16 (Mam16) tumors, the following methods were used to help ensure a more uniform tumor burden per mouse (thus reducing the requirement for greater numbers of mice per group), bilateral tumor implants were used. The animals necessary to begin an experiment were pooled, implanted bilaterally s.c. on day zero with 30-60-mg tumor fragments using a 12-gauge trocar, and again pooled before randomization to the various treatment and control groups. Chemotherapy was started within three days after tumor implantation while the number of cells per mouse was relatively small (1×10^7 […]).
(§4) Quantitative end points used assess antitumor activity included % Increased Life Span (% ILS), Tumor Cell Kill (Log10 kill), and Tumor Growth Inhibition (T/C). Long Term Survivors (45 or 60 day) were excluded from calculations of % ILS and Tumor Cell Kill.
(§5) The log10 cell kill was calculated from the following formula: [formula] where T-C is the tumor difference in the median day of death between the treated (T) and the control (C) groups and Td is the tumor doubling time (in days), the latter estimated from the best fit straight line from a log-linear growth plot of the control-group tumors in exponential growth. The conversion of the T-C values to log10 cell kill is possible because the Td for tumors regrowing post-treatment approximated the Td values of the tumors in untreated control mice.
(§6) Tumors were measured with a caliper once or twice weekly (as needed) until either tumors exceeded 1600 mg or cure was assured. Tumor weights were estimated from two-dimensional measurements: Tumor Weight (mg)=(a×b^2) / 2, where a and b are the tumor length and width (nun) respectively. Measurements were carried out simultaneously in both treatment and control groups. When the control group tumors reached approximately 750-1500 mg in size (median of group), the median tumor weight of each group was determined (including zeros). The T/C value in percent is an indiation of antitumor effectiveness. The % T/C was calculated from the following formula for solid murine tumor models: [formula] where T and C are median tumor weights of the treatment and control groups, respectively. A T/C equal to or less than 42% is considered significant antitumor activity. […]

[2] = test system: pancreatic ductal adenocarcinoma No. 03 (Panc 03); test: In vivo antitumor assay, Panc03(sc); set-up: species or system mouse
Text: as §1, §2, §3, §4, §5, §6

[3] = test system: P388 murine leukemia cells; test: Malignant cell cytotoxicity, continuous 48-hour exposure (Coulter Counter); type: cell-based; conditions: Mus musculus, read-out: IC50 P388 cont. exp.
Description: (§7) Examples of compound I having Topo II activity were tested for malignant cell cytotoxicity. In vitro cytotoxicity was assayed by determining cell survival following exposure of P388 murine leukemia cells to a range of test compound concentrations. Cytotoxicity was quantitated following either a one-hour exposure or continuous exposure of P388 cells to test compound.
(§8) Cytotoxicity following a one-hour exposure of cells to drug was assayed by quantitating clonogenic cell survival according to a published procedure [Freshney, R. L. (1987) Culture of Animal Cells. A Manual of Basic Technique. Wiley-Liss Inc., New York, N.Y., pp. 140-144]. Briefly, following drug exposure cells were plated in soft agar and incubated (37°, 5% CO2) for 7-10 days during which time viable cells form visible colonies. Cytotoxicity following continuous exposure of cells to test compound was assayed by quantitating total P388 cells on a Coultier Counter following a 48-hour co-incubation of test compound with cells. P388 cells were maintained in log phase throughout the duration of cytotoxicity assays.
(§9) The percentage of cells surviving relative to an untreated control was graphed as a function of increasing drug concentration.

[4] = test system: P388 murine leukemia cells; test: Malignant cell cytotoxicity, one-hour exposure (clonogenic survival in soft agar); type: cell-based; conditions: Mus musculus, 1 hr exposure, read-out: IC50 P388 1 hr. exp.
Description: as §7, §8, §9

[5] = drug route iv, sc, Ex 18 iv qd 3 bid 4-9, sc bid 10-11, Ex 20 iv qd 3,5 bid 4,6-8, sc bid 9-11 qd 12, read-out: MTD
[6] = drug route iv, sc, Ex 18 iv qd 3 bid 4-9, sc bid 10-11, Ex 20 iv qd 3,5 bid 4,6-8, sc bid 9-11 qd 12

T1 sequence (P11388 whole entry): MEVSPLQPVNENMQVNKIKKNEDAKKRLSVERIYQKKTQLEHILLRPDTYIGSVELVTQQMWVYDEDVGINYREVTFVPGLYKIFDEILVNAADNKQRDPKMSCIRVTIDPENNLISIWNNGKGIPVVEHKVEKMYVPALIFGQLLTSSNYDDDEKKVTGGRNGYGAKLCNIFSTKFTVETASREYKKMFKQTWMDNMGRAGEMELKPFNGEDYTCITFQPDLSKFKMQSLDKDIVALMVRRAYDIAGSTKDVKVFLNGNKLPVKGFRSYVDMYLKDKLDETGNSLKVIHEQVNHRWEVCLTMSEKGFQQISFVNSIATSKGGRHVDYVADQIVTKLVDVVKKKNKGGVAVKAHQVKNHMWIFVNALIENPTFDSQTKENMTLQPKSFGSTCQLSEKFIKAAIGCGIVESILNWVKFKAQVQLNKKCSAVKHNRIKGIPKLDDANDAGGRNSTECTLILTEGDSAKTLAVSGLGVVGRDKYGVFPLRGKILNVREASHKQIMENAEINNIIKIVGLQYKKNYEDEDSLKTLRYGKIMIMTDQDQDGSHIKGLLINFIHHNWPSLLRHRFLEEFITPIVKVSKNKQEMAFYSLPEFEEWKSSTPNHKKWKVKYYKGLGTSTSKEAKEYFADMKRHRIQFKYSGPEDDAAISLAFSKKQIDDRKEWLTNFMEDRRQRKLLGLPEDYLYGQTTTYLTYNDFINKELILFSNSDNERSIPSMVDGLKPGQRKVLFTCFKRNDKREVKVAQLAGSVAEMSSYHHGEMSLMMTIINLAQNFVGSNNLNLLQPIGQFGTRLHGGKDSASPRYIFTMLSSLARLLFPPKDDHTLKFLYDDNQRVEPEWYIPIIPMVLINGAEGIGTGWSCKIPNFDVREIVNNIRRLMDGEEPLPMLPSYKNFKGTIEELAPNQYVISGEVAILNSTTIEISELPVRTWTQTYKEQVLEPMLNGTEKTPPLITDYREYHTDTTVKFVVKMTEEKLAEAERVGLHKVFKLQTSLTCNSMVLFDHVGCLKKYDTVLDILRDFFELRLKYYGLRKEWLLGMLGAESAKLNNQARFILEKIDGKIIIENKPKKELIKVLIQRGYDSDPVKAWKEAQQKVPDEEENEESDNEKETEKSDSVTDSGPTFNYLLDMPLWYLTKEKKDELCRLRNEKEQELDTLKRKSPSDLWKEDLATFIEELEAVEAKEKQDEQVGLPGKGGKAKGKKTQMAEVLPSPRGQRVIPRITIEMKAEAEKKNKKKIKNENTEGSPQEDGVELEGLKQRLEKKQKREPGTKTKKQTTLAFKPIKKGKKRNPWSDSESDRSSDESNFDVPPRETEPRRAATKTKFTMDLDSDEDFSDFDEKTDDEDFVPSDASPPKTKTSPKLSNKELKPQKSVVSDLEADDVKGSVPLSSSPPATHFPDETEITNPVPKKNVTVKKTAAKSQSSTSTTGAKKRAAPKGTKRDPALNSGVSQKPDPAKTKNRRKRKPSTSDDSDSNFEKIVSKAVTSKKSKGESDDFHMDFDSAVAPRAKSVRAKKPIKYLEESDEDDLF

In the case of Cc1cc(-c2c(F)cc3c(=O)c(Cc4ccccc4)cn(C4CC4)c3c2F)cc(C)n1 [Example 3], the EC50 (human topoisomerase II) is reported as 3.9 µM, the MTD ([1]; drug route sc, qd 3-12, footnote 1, read-out: MTD (MTD not achieved, maximum dose tested)) is reported as > 3750 mg/kg and the T/C % ([2]; drug route sc, Ex 3 qd 3-12, Ex 26 qd 3,5-7 bid 4) is reported as > 100%. It also gave an IC50 [3] of 7.1 µM and an IC50 [4] of 7.3 µM.
For Cc1cc(-c2c(F)cc3c(=O)c(Cc4ncc[nH]4)cn(C4CC4)c3c2F)cc(C)n1 [Example 18], the EC50 (human topoisomerase II) was 1.1 µM, the MTD [1, 5] was 88 mg/kg and the T/C % [2, 6] was 21%. It also gave an IC50 [4] of 1.1 µM.
In the case of Cc1cc(-c2c(F)cc3c(=O)c(Cc4cccc(F)c4OCc4ccccc4)cn(C4CC4)c3c2F)cc(C)n1 [Example 20], the EC50 (human topoisomerase II) is reported as > 90 µM, the MTD [1, 5] is reported as 336 mg/kg and the T/C % [2, 6] is reported as 80%. It also gave an IC50 [4] of 0.25 µM.
